Experimental data: patent publication US4927820A, “Fused heterocyclic derivatives of 1,2,3,4-tetrahydroacridine” (priority 1988, dated 1990)

What was measured:
[1] = tested on: scopolamine induced memory deficit in mice; assay: Dark Avoidance Assay (reversal of scopolamine induced memory deficit); assay type: in vivo; conditions: retest 24 hours later
Experimental: This utility can also be ascertained by determining the ability of these compounds to restore cholinergically deficient memory in the Dark Avoidance Assay. In this assay mice are tested for their ability to remember an unpleasant stimulus for a period of 24 hours. A mouse is placed in a chamber that contains a dark compartment; a strong incadescent light drives it to the dark compartment, where an electric shock is administered through metal plates on the floor. The animal is removed from the testing apparatus and tested again, 24 hours later, for the ability to remember the electric shock.
If scopolamine, an anticholinergic that is known to cause memory impairment, is administered before an animal's initial exposure to the test chamber, the animal re-enters the dark compartment shortly after being placed in the test chamber 24 hours later. This effect of scopolamine is blocked by an active test compound, resulting in a greater interval before re-entry into the dark compartment.
The results for an active compound are expressed as the percent of a group of animals in which the effect of scopolamine is blocked, as manifested by an increased interval between being placed in the test chamber and re-entering the dark compartment.

[2] = target: acetylcholinesterase (Homo sapiens, UniProt P22303); assay: Cholinesterase inhibition assay (photometric method of Ellman et al.); assay type: biochemical
Sequence of acetylcholinesterase (P22303 32-614): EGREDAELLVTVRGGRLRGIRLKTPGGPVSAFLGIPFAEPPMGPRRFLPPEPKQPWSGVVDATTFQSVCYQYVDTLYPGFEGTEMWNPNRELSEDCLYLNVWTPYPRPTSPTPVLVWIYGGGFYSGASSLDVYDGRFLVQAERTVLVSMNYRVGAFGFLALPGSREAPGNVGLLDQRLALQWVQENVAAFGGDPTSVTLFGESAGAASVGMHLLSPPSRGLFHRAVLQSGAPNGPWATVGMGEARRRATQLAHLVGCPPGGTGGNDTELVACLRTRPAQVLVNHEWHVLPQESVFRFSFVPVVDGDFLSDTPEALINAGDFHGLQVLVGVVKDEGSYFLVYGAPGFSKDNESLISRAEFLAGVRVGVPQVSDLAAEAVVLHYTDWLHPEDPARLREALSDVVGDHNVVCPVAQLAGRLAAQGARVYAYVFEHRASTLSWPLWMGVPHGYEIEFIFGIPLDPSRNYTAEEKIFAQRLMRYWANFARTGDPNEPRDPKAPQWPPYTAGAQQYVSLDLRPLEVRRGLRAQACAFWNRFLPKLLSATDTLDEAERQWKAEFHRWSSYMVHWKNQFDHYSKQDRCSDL

## CNC(=O)Oc1ccc2c(c1)[C@]1(C)CCN(C)[C@@H]1N2C [Physostigmine, reference compound]
[1]; dose 0.31 mg/kg body weight, reference
  % of animals with scopolamine induced memory deficit reversal: 20%

## c1ccc(C2Nc3c4c(nc5ccccc35)CCCC4O2)cc1 (stereo not shown) [2-Phenyl-1,2,3a,4,5,6-hexahydro[1,3]oxazino[6,5,4-kl]acridine]
[2]
  IC50: 36 µM
[1]; dose 5.0 mg/kg body weight
  % of animals with scopolamine induced memory deficit reversal: 27%

## Fc1ccc(C2Nc3c4c(nc5ccccc35)CCCC4O2)cc1 (stereo not shown) [2-(4-Fluorophenyl)-1,2,3a,4,5,6-hexahydro[1,3]oxazino[6,5,4-kl]acridine]
[2]
  IC50: 21 µM
